Source: the NIST ThermoML archive (doi:10.1021/acs.jced.8b00217)

How the values were obtained:
[1] = relative permittivity at various frequencies (dimensionless); xn = mol fraction of the nth substance listed; conditions: 298.15 K, 101.3 kPa, Liquid, Frequency=0.01 MHz, Coaxial cylinder capacitor
[2] = xn = mol fraction of the nth substance listed; conditions: 298.15 K, 101.3 kPa, Liquid, Vibrating tube method
[3] = refractive index (Na D-line) (dimensionless); xn = mol fraction of the nth substance listed; conditions: 298.15 K, 101.3 kPa, Liquid, Standard Abbe refractometry
[4] = 298.15 K; 101.3 kPa; Liquid; Vibrating tube method
[5] = relative permittivity at various frequencies (dimensionless); conditions: 298.15 K; 101.3 kPa; Liquid; Frequency=0.01 MHz; Coaxial cylinder capacitor
[6] = refractive index (Na D-line) (dimensionless); conditions: 298.15 K; 101.3 kPa; Liquid; Standard Abbe refractometry

CCCCCCCCCCO [decan-1-ol] + O=C1CCCC1
x2 = 0
Conditions	mass density [kg/m3]	refractive index	relative permittivity
[1]	–	–	7.74
[2]	826.71	–	–
[3]	–	1.4352	–

CCCCCCCCO [octan-1-ol] + O=C1CCCC1
x2 = 0
Conditions	mass density [kg/m3]	refractive index	relative permittivity
[1]	–	–	9.85
[2]	821.98	–	–
[3]	–	1.4276	–

CCO [ethanol]
Conditions	mass density [kg/m3]	refractive index	relative permittivity
[4]	785.26	–	–
[5]	–	–	24.37
[6]	–	1.3594	–

CCCCCCCCO [octan-1-ol]
Conditions	mass density [kg/m3]	refractive index	relative permittivity
[4]	821.98	–	–
[5]	–	–	9.85
[6]	–	1.4276	–

CCO [ethanol] + O=C1CCCC1
x2 = 0
Conditions	mass density [kg/m3]	refractive index	relative permittivity
[1]	–	–	24.37
[2]	785.26	–	–
[3]	–	1.3594	–

CCCCCCO [hexan-1-ol]
Conditions	mass density [kg/m3]	refractive index	relative permittivity
[4]	815.99	–	–
[5]	–	–	13.09
[6]	–	1.4161	–

O=C1CCCC1 [cyclopentanone] + CCCCCCO
Conditions	mass density, [2] [kg/m3]	refractive index, [3]	relative permittivity, [1]
x1 = 0.1	823.87	1.4175	12.44
x1 = 0.2	832.61	1.4189	12
x1 = 0.3	842.44	1.4204	11.68
x1 = 0.4	853.65	1.4221	11.51
x1 = 0.5	866.02	1.4239	11.48
x1 = 0.6	879.48	1.4258	11.59
x1 = 0.7	894.17	1.4279	11.87
x1 = 0.8	909.92	1.4301	12.27
x1 = 0.9	926.64	1.4324	12.83
x1 = 1	944.31	1.4347	13.52

C1CCCCC1 [cyclohexane] + O=C1CCCC1
x2 = 0
Conditions	refractive index	relative permittivity
[1]	–	2.02
[3]	1.4235	–

CCCCO [butan-1-ol]
Conditions	mass density [kg/m3]	refractive index	relative permittivity
[4]	805.92	–	–
[5]	–	–	17.49
[6]	–	1.3971	–

O=C1CCCC1 [cyclopentanone] + CCCCCCCCCCO
Conditions	mass density, [2] [kg/m3]	refractive index, [3]	relative permittivity, [1]
x1 = 0.1	829.38	1.4345	7.75
x1 = 0.2	833.22	1.4339	7.84
x1 = 0.3	839.24	1.4335	8.07
x1 = 0.4	847.47	1.4333	8.43
x1 = 0.5	857.91	1.4332	8.93
x1 = 0.6	870.34	1.4332	9.56
x1 = 0.7	884.81	1.4333	10.34
x1 = 0.8	901.52	1.4336	11.27
x1 = 0.9	921.01	1.4341	12.31
x1 = 1	944.31	1.4347	13.52

CCCCCCO [hexan-1-ol] + O=C1CCCC1
x2 = 0
Conditions	mass density [kg/m3]	refractive index	relative permittivity
[1]	–	–	13.09
[2]	815.99	–	–
[3]	–	1.4161	–

C1CCCCC1 [cyclohexane]
Conditions	mass density [kg/m3]	refractive index	relative permittivity
[4]	773.89	–	–
[5]	–	–	2.02
[6]	–	1.4235	–

O=C1CCCC1 [cyclopentanone] + C1CCCCC1
Conditions	refractive index, [3]	relative permittivity, [1]
x1 = 0.03	1.4235	2.25
x1 = 0.05	1.4235	2.39
x1 = 0.1	1.4236	2.78
x1 = 0.15	1.4237	3.19
x1 = 0.2	1.4239	3.61
x1 = 0.3	1.4244	4.51
x1 = 0.4	1.4252	5.51
x1 = 0.5	1.4262	6.6
x1 = 0.6	1.4274	7.78
x1 = 0.7	1.4289	9.06
x1 = 0.8	1.4306	10.45
x1 = 0.9	1.4325	11.94
x1 = 1	1.4347	13.52

CCCCO [butan-1-ol] + O=C1CCCC1
x2 = 0
Conditions	mass density [kg/m3]	refractive index	relative permittivity
[1]	–	–	17.49
[2]	805.92	–	–
[3]	–	1.3971	–

O=C1CCCC1 [cyclopentanone]
Conditions	mass density [kg/m3]	refractive index	relative permittivity
[4]	944.31	–	–
[5]	–	–	13.52
[6]	–	1.4347	–

O=C1CCCC1 [cyclopentanone] + CCO
Conditions	mass density, [2] [kg/m3]	refractive index, [3]	relative permittivity, [1]
x1 = 0.1	811.02	1.3696	22.42
x1 = 0.2	833.48	1.3793	20.69
x1 = 0.3	853.69	1.3884	19.16
x1 = 0.4	871.79	1.3968	17.78
x1 = 0.5	888.17	1.4046	16.6
x1 = 0.6	902.91	1.4117	15.59
x1 = 0.7	915.99	1.4182	14.77
x1 = 0.8	927.18	1.4242	14.16
x1 = 0.9	936.58	1.4296	13.75
x1 = 1	944.31	1.4347	13.52

O=C1CCCC1 [cyclopentanone] + CCCCO
Conditions	mass density, [2] [kg/m3]	refractive index, [3]	relative permittivity, [1]
x1 = 0.1	820.75	1.4015	16.31
x1 = 0.2	835.31	1.4057	15.37
x1 = 0.3	849.88	1.4098	14.58
x1 = 0.4	864.47	1.4137	13.97
x1 = 0.5	878.88	1.4175	13.5
x1 = 0.6	893.05	1.4212	13.18
x1 = 0.7	906.81	1.4248	13.03
x1 = 0.8	920.01	1.4282	13.04
x1 = 0.9	932.67	1.4315	13.19
x1 = 1	944.31	1.4347	13.52

O=C1CCCC1 [cyclopentanone] + CCCCCCCCO
Conditions	mass density, [2] [kg/m3]	refractive index, [3]	relative permittivity, [1]
x1 = 0.1	827.28	1.4276	9.63
x1 = 0.2	833.41	1.4278	9.51
x1 = 0.3	841.25	1.4282	9.5
x1 = 0.4	850.89	1.4287	9.65
x1 = 0.5	862.2	1.4294	9.94
x1 = 0.6	874.88	1.4302	10.37
x1 = 0.7	889.18	1.4311	10.97
x1 = 0.8	905.27	1.4321	11.69
x1 = 0.9	923.62	1.4333	12.55
x1 = 1	944.31	1.4347	13.52

CCCCCCCCCCO [decan-1-ol]
Conditions	mass density [kg/m3]	refractive index	relative permittivity
[4]	826.71	–	–
[5]	–	–	7.74
[6]	–	1.4352	–
